# From patent US9944647B2 (Incyte Corporation, priority 2015, dated 2018)
# Target: LSD-1 enzyme (Homo sapiens (Human), UniProt O60341)
# Assay: LANCE LSD1/KDM1A demethylase assay (LSD1 histone demethylase biochemical assay)
# Settings: 1 nM LSD-1 enzyme, 1 hour preincubation at 25° C., Biotin-labeled Histone H3 peptide substrate
# Experimental: Example A: LSD1 Histone Demethylase Biochemical Assay
# LANCE LSD1/KDM1A demethylase assay—10 μL of 1 nM LSD-1 enzyme (ENZO BML-SE544-0050) in the assay buffer (50 mM Tris, pH 7.5, 0.01% Tween-20, 25 mM NaCl, 5 mM DTT) were preincubated for 1 hour at 25° C. with 0.8 μL compound/DMSO dotted in black 384 well polystyrene plates. […] Reactions were stopped by addition of 10 μL 1×LANCE Detection Buffer (PerkinElmer CR97-100) supplemented with 1.5 nM Eu-anti-unmodified H3K4 Antibody (PerkinElmer TRF0404), and 225 nM LANCE Ultra Streptavidin (PerkinElmer TRF102) along with 0.9 mM Tranylcypromine-HCl (Millipore 616431). After stopping the reactions plates were incubated for 30 minutes and read on a PHERAstar FS plate reader (BMG Labtech).
row,Structure (SMILES),IC50
1,"Cc1nc2cc(-c3c(-c4ccc(C#N)cc4)nc(OC[C@@H]4CCCN(C)C4)n4ccnc34)ccc2n1C [Example 65, 4-(8-(1,2-dimethyl-1H-benzimidazol-5-yl)-5-{[(3R)-1-methylpiperidin-3-yl]methoxy}imidazo[1,2-c]pyrimidin-7-yl)benzonitrile]",≤ 50 nM
2,"C[C@@H](O)CN1CCC[C@@H](COc2nc(-c3ccc(C#N)cc3)c(-c3cnc4c(cnn4C)c3)c3nccn23)C1 [Example 136, 4-[5-({(3R)-1-[(2R)-2-hydroxypropyl]piperidin-3-yl}methoxy)-8-(1-methyl-1H-pyrazolo[3,4-b]pyridin-5-yl)imidazo[1,2-c]pyrimidin-7-yl]benzonitrile]",50 to 500 nM
3,"Cc1cc(-c2c(-c3ccc(C#N)cc3)nc(N3CCC(N(C)C)CC3)n3ccnc23)cc(F)c1CO [Example 89, 4-{5-[4-(dimethylamino)piperidin-1-yl]-8-[3-fluoro-4-(hydroxymethyl)-5-methylphenyl]imidazo[1,2-c]pyrimidin-7-yl}benzonitrile]",≤ 50 nM
4,"C[C@H](O)CN1CCC[C@@H](COc2nc(-c3ccc(C#N)cc3)c(-c3ccc4c(c3)oc(=O)n4C)c3nccn23)C1 [Example 134, 4-[5-({(3R)-1-[(2S)-2-hydroxypropyl]piperidin-3-yl}methoxy)-8-(3-methyl-2-oxo-2,3-dihydro-1,3-benzoxazol-6-yl)imidazo[1,2-c]pyrimidin-7-yl]benzonitrile]",≤ 50 nM
5,"CN1CC[C@@H](COc2nc(-c3ccc(C#N)cc3)c(-c3cnc4c(c3)OCCN4C)c3nccn23)C1 [Example 24, 4-(8-(4-methyl-3,4-dihydro-2H-pyrido[3,2-b][1,4]oxazin-7-yl)-5-{[(3R)-1-methylpyrrolidin-3-yl]methoxy}imidazo[1,2-c]pyrimidin-7-yl)benzonitrile]",≤ 50 nM
6,"CN1CC[C@@H](COc2nc(-c3ccc(C#N)cc3)c(-c3ccc(N4CCCC4)nc3)c3nccn23)C1 [Example 22, 4-[5-{[(3R)-1-methylpyrrolidin-3-yl]methoxy}-8-(6-pyrrolidin-1-ylpyridin-3-yl)imidazo[1,2-c]pyrimidin-7-yl]benzonitrile]",50 to 500 nM
7,"COc1ncc(-c2c(-c3ccc(C#N)cc3)nc(N3CCC(N(C)C)CC3)n3ccnc23)cc1F [Example 49, 4-[5-[4-(dimethylamino)piperidin-1-yl]-8-(5-fluoro-6-methoxypyridin-3-yl)imidazo[1,2-c]pyrimidin-7-yl]benzonitrile]",≤ 50 nM
8,"CN(C)C1CCN(c2nc(-c3ccc(C#N)cc3)c(-c3ccc(CN4CCOCC4)c(F)c3)c3nccn23)CC1 [Example 98, 4-{5-[4-(dimethylamino)piperidin-1-yl]-8-[3-fluoro-4-(morpholin-4-ylmethyl)phenyl]imidazo[1,2-c]pyrimidin-7-yl}benzonitrile]",≤ 50 nM
9,"CN(C)C1CCN(c2nc(-c3ccc(C#N)cc3)c(-c3ccc4c(cnn4C)c3)c3nccn23)CC1 [Example 46, 4-[5-[4-(dimethylamino)piperidin-1-yl]-8-(1-methyl-1H-indazol-5-yl)imidazo[1,2-c]pyrimidin-7-yl]benzonitrile]",≤ 50 nM
10,"Cc1cc(-c2c(-c3ccc(C#N)cc3)nc(OC[C@@H]3CCCN(C)C3)n3ccnc23)ccc1CO [Example 35, 4-(8-[4-(hydroxymethyl)-3-methylphenyl]-5-{[(3R)-1-methylpiperidin-3-yl]methoxy}imidazo[1,2-c]pyrimidin-7-yl)benzonitrile]",≤ 50 nM
11,"CCN1CCC[C@@H](COc2nc(-c3ccc(C#N)cc3)c(-c3ccc(C)cc3CO)c3nccn23)C1 [Example 119, 4-{5-{[(3R)-1-ethylpiperidin-3-yl]methoxy}-8-[2-(hydroxymethyl)-4-methylphenyl]imidazo[1,2-c]pyrimidin-7-yl}benzonitrile]",50 to 500 nM
12,"CN1CCC[C@@H](COc2nc(-c3ccc(C#N)cc3)c(-c3ccc4c(c3)oc(=O)n4C)c3nccn23)C1 [Example 7, 4-(8-(3-methyl-2-oxo-2,3-dihydro-1,3-benzoxazol-6-yl)-5-{[(3R)-1-methylpiperidin-3-yl]methoxy}imidazo[1,2-c]pyrimidin-7-yl)benzonitrile]",≤ 50 nM
13,"Cn1ncc2cc(-c3c(-c4ccc(C#N)cc4)nc(OC[C@@H]4CCCN(CC(C)(C)O)C4)n4ccnc34)cnc21 [Example 138, 4-[5-{[(3R)-1-(2-hydroxy-2-methylpropyl)piperidin-3-yl]methoxy}-8-(1-methyl-1H-pyrazolo[3,4-b]pyridin-5-yl)imidazo[1,2-c]pyrimidin-7-yl]benzonitrile]",50 to 500 nM
14,"CN1CCC[C@@H](COc2nc(-c3ccc(C#N)cc3)c(-c3ccc4c(c3)nc(C(F)F)n4C)c3nccn23)C1 [Example 64, 4-(8-[2-(difluoromethyl)-1-methyl-1H-benzimidazol-5-yl]-5-{[(3R)-1-methylpiperidin-3-yl]methoxy}imidazo[1,2-c]pyrimidin-7-yl)benzonitrile]",≤ 50 nM
15,"CN(C)C1CCN(c2nc(-c3ccc(C#N)cc3)c(-c3ccc4c(c3)nc(C(F)F)n4C)c3nccn23)CC1 [Example 52, 4-{8-[2-(difluoromethyl)-1-methyl-1H-benzimidazol-5-yl]-5-[4-(dimethylamino)piperidin-1-yl]imidazo[1,2-c]pyrimidin-7-yl}benzonitrile]",≤ 50 nM
16,"CN(C)C1CCN(c2nc(-c3ccc(C#N)cc3)c(-c3ccc4c(c3)oc(=O)n4C)c3nccn23)CC1 [Example 47, 4-[5-[4-(dimethylamino)piperidin-1-yl]-8-(3-methyl-2-oxo-2,3-dihydro-1,3-benzoxazol-6-yl)imidazo[1,2-c]pyrimidin-7-yl]benzonitrile]",≤ 50 nM
17,"CN1CCC[C@@H](COc2nc(-c3ccc(C#N)cc3)c(-c3ccc4c(c3)OC(C(=O)N(C)C)CO4)c3nccn23)C1 (stereo partly drawn) [Example 76, 7-(7-(4-cyanophcnyl)-5-{[(3R)-1-methylpiperidin-3-yl]methoxy}imidazo[1,2-c]pyrimidin-8-yl)-N,N-dimethyl-2,3-dihydro-1,4-benzodioxine-2-carboxamide]",≤ 50 nM
18,"CN1CCC[C@@H](COc2nc(-c3ccc(C#N)cc3)c(-c3ccc4c(c3)C(O)CC4)c3nccn23)C1 (stereo partly drawn) [Example 123, 4-(8-(3-hydroxy-2,3-dihydro-1H-inden-5-yl)-5-{[(3R)-1-methylpiperidin-3-yl]methoxy}imidazo[1,2-c]pyrimidin-7-yl)benzonitrile]",≤ 50 nM
19,"Cc1ncc(-c2c(-c3ccc(C#N)cc3)nc(N3CCC(N(C)C)CC3)n3ccnc23)cc1C#N [Example 66, 5-{7-(4-cyanophenyl)-5-[4-(dimethylamino)piperidin-1-yl]imidazo[1,2-c]pyrimidin-8-yl}-2-methylnicotinonitrile]",50 to 500 nM
20,"CCc1ccc(-c2c(-c3ccc(C#N)cc3)nc(OC[C@@H]3CCCN(C)C3)n3ccnc23)cn1 [Example 107, 4-(8-(6-ethylpyridin-3-yl)-5-{[(3R)-1-methylpiperidin-3-yl]methoxy}imidazo[1,2-c]pyrimidin-7-yl)benzonitrile]",50 to 500 nM
21,"Cc1ccc(-c2c(-c3ccc(C#N)cc3)nc(OC[C@@H]3CCCN(C)C3)n3ccnc23)c(CO)c1 [Example 72, 4-(8-[2-(hydroxymethyl)-4-methylphenyl]-5-{[(3R)-1-methylpiperidin-3-yl]methoxy}imidazo[1,2-c]pyrimidin-7-yl)benzonitrile]",≤ 50 nM
22,"CN1CCC[C@@H](COc2nc(-c3ccc(C#N)cc3)c(-c3ccc(N4CCCC4)nc3)c3nccn23)C1 [Example 5, 4-[5-{[(3R)-1-methylpiperidin-3-yl]methoxy}-8-(6-pyrrolidin-1-ylpyridin-3-yl)imidazo[1,2-c]pyrimidin-7-yl]benzonitrile]",≤ 50 nM
23,"CN1CCC[C@@H](COc2nc(-c3ccc(C#N)cc3)c(-c3ccc(CN4CCOCC4)cc3F)c3nccn23)C1 [Example 95, 4-(8-[2-fluoro-4-(morpholin-4-ylmethyl)phenyl]-5-{[(3R)-1-methylpiperidin-3-yl]methoxy}imidazo[1,2-c]pyrimidin-7-yl)benzonitrile]",≤ 50 nM
24,"COc1ccc(-c2c(-c3ccc(C#N)cc3)nc(OC[C@@H]3CCCN(C)C3)n3ccnc23)cn1 [Example 3, 4-(8-(6-methoxypyridin-3-yl)-5-{[(3R)-1-methylpiperidin-3-yl]methoxy}imidazo[1,2-c]pyrimidin-7-yl)benzonitrile]",≤ 50 nM
25,"COC(=O)N(C)Cc1ccc(-c2c(-c3ccc(C#N)cc3)nc(OC[C@@H]3CCCN(C)C3)n3ccnc23)cc1 [Example 87, methyl [4-(7-(4-cyanophenyl)-5-{[(3R)-1-methylpiperidin-3-yl]methoxy}imidazo[1,2-c]pyrimidin-8-yl)benzyl]methylcarbamate]",≤ 50 nM
26,"CN1CCC[C@@H](COc2nc(-c3ccc(C#N)cc3)c(-c3ccc(CN4CC[C@H](C#N)C4)cc3)c3nccn23)C1 [Example 13, (3S)-1-[4-(7-(4-cyanophenyl)-5-{[(3R)-1-methylpiperidin-3-yl]methoxy}imidazo[1,2-c]pyrimidin-8-yl)benzyl]pyrrolidine-3-carbonitrile]",≤ 50 nM
27,"CN1CCC[C@@H](COc2nc(-c3ccc(C#N)cc3)c(-c3ccc4c(c3)CC(O)C4)c3nccn23)C1 (stereo partly drawn) [Example 124, 4-(8-(2-hydroxy-2,3-dihydro-1H-inden-5-yl)-5-{[(3R)-1-methylpiperidin-3-yl]methoxy}imidazo[1,2-c]pyrimidin-7-yl)benzonitrile]",≤ 50 nM
28,"CN1CCC[C@@H](COc2nc(-c3ccc(C#N)cc3)c(-c3ccc(N(C)C)nc3)c3nccn23)C1 [Example 4, 4-(8-[6-(dimethylamino)pyridin-3-yl]-5-{[(3R)-1-methylpiperidin-3-yl]methoxy}imidazo[1,2-c]pyrimidin-7-yl)benzonitrile]",≤ 50 nM
